This note sets out measurements from PubChem BioAssay (NCI).

Several values for one entry are separate records, joined by “and”; a condition that tells them apart may be missing. Equal values may be shown once.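 A five-concentration, 48-hour dose response in 96-well plates underlies each endpoint, interpolated linearly between surrounding concentrations. Here, GI50 denotes the concentration required for 50% inhibition of growth. At the TGI there is no net growth.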

Among the test systems are A549 NSCLC; EKVX NSCLC; SNB-75 CNS; NCI/ADR-RES ovarian; UACC-62 melanoma; M14 melanoma; RPMI-8226 leukemia; HT29 colon; MALME-3M melanoma.
What all share (test): NCI tumour cell line growth inhibition, 48 h

Take `N#C/C(=C\N1CCNC1=S)C(=O)c1ccc2ccccc2c1`: the TGI in the assay with A549 NSCLC, with EKVX NSCLC, with SNB-75 CNS, in the assay with NCI/ADR-RES ovarian, in the assay with UACC-62 melanoma and in the assay with M14 melanoma was more than 100 µM in each case. Also, the TGI in the assay on RPMI-8226 leukemia and in the assay with HT29 colon was more than 100 µM in each case.

Regarding `CC(C)Nc1n[nH]c(=O)n1C(C)C`, the TGI in the assay with A549 NSCLC, with EKVX NSCLC, with SNB-75 CNS, in the assay with NCI/ADR-RES ovarian, in the assay on UACC-62 melanoma and in the assay on M14 melanoma was more than 100 µM in each case. Further, the TGI in the assay on RPMI-8226 leukemia and in the assay on HT29 colon was more than 100 µM in each case.

For the compound `O=c1cc2oc3ccc4ccccc4c3cc-2c(=O)[nH]1`, the TGI was 42.8 µM in the assay on A549 NSCLC; 33.8 µM with EKVX NSCLC; 37.1 µM in the assay with NCI/ADR-RES ovarian; 32.5 µM in the assay on UACC-62 melanoma; 32.2 µM in the assay with M14 melanoma; 30.3 µM in the assay with MALME-3M melanoma. Also, the TGI in the assay with RPMI-8226 leukemia is more than 100 µM; with HT29 colon it was 32.2 µM.

Take `O=C(/C=C/c1ccc(O)c(O)c1)Oc1ccccc1`: the TGI in the assay on A549 NSCLC is 59 µM; in the assay with EKVX NSCLC, more than 72.9 µM; in the assay on SNB-75 CNS, 44.2 µM; in the assay with NCI/ADR-RES ovarian it was 43.5 µM; with UACC-62 melanoma it was 35.9 µM; with M14 melanoma, 55.2 µM. Moreover, the TGI with RPMI-8226 leukemia was 45 µM; in the assay on HT29 colon it was 48.8 µM.

Regarding `COC(=O)c1ccccc1C1CN=NC12Cc1c(C)c3c(c(C)c1C2=O)CCC3` (centres undefined), the TGI with A549 NSCLC, with EKVX NSCLC, with SNB-75 CNS, in the assay with NCI/ADR-RES ovarian, with UACC-62 melanoma and in the assay on M14 melanoma was more than 100 µM in each case. Besides, the TGI in the assay on MALME-3M melanoma and in the assay with HT29 colon was more than 100 µM throughout.

Regarding `O=c1[nH]ncc2[nH]c3c(c12)CCCc1ccccc1-3`, the TGI was more than 100 µM with A549 NSCLC; 51.7 µM with EKVX NSCLC; more than 100 µM with NCI/ADR-RES ovarian; more than 100 µM with UACC-62 melanoma; more than 100 µM in the assay with M14 melanoma; more than 100 µM with MALME-3M melanoma. Besides, the TGI was 84.9 µM with RPMI-8226 leukemia and more than 100 µM in the assay with HT29 colon.

Take `CCOC(=O)C1=C(C)N(Cc2ccc(Cl)cc2Cl)C2(O)C(OC)CC(=O)C3C(=O)N(c4ccccc4)C(=O)C132` (centres undefined): the TGI in the assay on A549 NSCLC stood at 12.4 µM; with EKVX NSCLC, 16.7 µM; with NCI/ADR-RES ovarian, 7.63 µM; with UACC-62 melanoma it was 11.9 µM; in the assay with M14 melanoma, 13.5 µM; in the assay with MALME-3M melanoma, 23.9 µM. In addition, the figures for the TGI in the assay with RPMI-8226 leukemia and with HT29 colon were 8.61 µM and 4 µM, respectively.

Regarding `COc1cccc(N2CCc3c(C)c(C#N)c4nc5ccccc5n4c32)c1`, the TGI with A549 NSCLC, with SNB-75 CNS, with NCI/ADR-RES ovarian, in the assay on UACC-62 melanoma, with M14 melanoma and with MALME-3M melanoma was more than 100 µM throughout. This compound also gave a TGI in the assay with HT29 colon of more than 100 µM.

`CCOC(=O)c1c2ccccc2n2c(=O)n(C)nnc12`: the TGI with A549 NSCLC, in the assay on EKVX NSCLC, with SNB-75 CNS, with NCI/ADR-RES ovarian, with UACC-62 melanoma and in the assay with M14 melanoma was more than 100 µM in each case. Moreover, the TGI in the assay on MALME-3M melanoma and with RPMI-8226 leukemia was more than 100 µM in each case.

With `COC(=O)C1=C(C(=O)OC)C2(/N=C(\Nc3ccccc3)c3ccccc3)N(c3ccc(OC)cc3)CC(c3ccccc3)N2O1` (centres undefined), the TGI with A549 NSCLC is more than 100 µM; in the assay on EKVX NSCLC, more than 100 µM; in the assay on SNB-75 CNS, 96.7 µM; in the assay on NCI/ADR-RES ovarian, more than 100 µM; in the assay with UACC-62 melanoma, more than 100 µM; in the assay on M14 melanoma, more than 100 µM. The TGI in the assay with MALME-3M melanoma and with HT29 colon was more than 100 µM each time.

Consider `O=c1oc2ccccc2c(O)c1C(c1ccc([N+](=O)[O-])cc1)c1c(O)c2ccccc2oc1=O`, for which the TGI in the assay on EKVX NSCLC, in the assay on SNB-75 CNS, in the assay with NCI/ADR-RES ovarian, with UACC-62 melanoma, in the assay with MALME-3M melanoma and in the assay on HT29 colon was more than 100 µM each time.

As to `CC(=O)OCC1OC(Sc2nc(-c3ccc(C)cc3)c(C#N)c(=O)n2C2OC(COC(C)=O)C(OC(C)=O)C(OC(C)=O)C2OC(C)=O)C(OC(C)=O)C(OC(C)=O)C1OC(C)=O` (centres undefined), the TGI in the assay on A549 NSCLC, in the assay on EKVX NSCLC, with SNB-75 CNS, in the assay on NCI/ADR-RES ovarian, in the assay with UACC-62 melanoma and in the assay on M14 melanoma was more than 100 µM in each case. Moreover, the TGI in the assay with RPMI-8226 leukemia and with HT29 colon was more than 100 µM throughout. In addition, in the assay with M14 melanoma, the GI50 was > 100 µM and 43.3 µM.

As for `S=c1scc(-c2ccc(Cl)cc2)n1OC1CCCC1`, the TGI in the assay on A549 NSCLC, in the assay with EKVX NSCLC, in the assay with SNB-75 CNS, in the assay on NCI/ADR-RES ovarian, with UACC-62 melanoma and with M14 melanoma was more than 100 µM each time. Moreover, the TGI in the assay on MALME-3M melanoma and in the assay with HT29 colon was more than 100 µM in each case.

As for `CNC(=O)OC(C)CN1c2ccccc2Sc2ccccc21` (centres undefined), the TGI in the assay with A549 NSCLC, in the assay on EKVX NSCLC, in the assay on NCI/ADR-RES ovarian, in the assay with UACC-62 melanoma, in the assay with M14 melanoma and with MALME-3M melanoma was more than 100 µM throughout. In the assay on HT29 colon, this compound came in with a TGI of more than 100 µM.

In the case of `O=C1CC(CC(O)C(O)CO)CC(=O)N1` (centres undefined), the TGI in the assay on A549 NSCLC, with EKVX NSCLC, in the assay on NCI/ADR-RES ovarian, with M14 melanoma, with MALME-3M melanoma and in the assay on RPMI-8226 leukemia was more than 100 µM each time. For the same compound, the TGI in the assay on HT29 colon is more than 100 µM.

Take `Cc1ccc2c(c1)C(=O)C1(C2)Cc2ccc(C)cc2C1=O`: the TGI in the assay with A549 NSCLC, with EKVX NSCLC, in the assay with SNB-75 CNS, in the assay on NCI/ADR-RES ovarian, in the assay on M14 melanoma and in the assay on MALME-3M melanoma was more than 100 µM throughout. Besides, the TGI with RPMI-8226 leukemia and in the assay with HT29 colon was more than 100 µM throughout.
